Assay results taken from patent US7138361B2, “Herbicidal heterocycles” (E. I. du Pont de Nemours and Company, priority 2000, dated 2006).

Tests used:
Format in all cases: in vivo
[1] = test system: Surinam grass (Brachiaria decumbens); assay: Test B preemergence
Procedure, shortened: (§1)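 Greenhouse test: chemicals are formulated in a surfactant-containing non-phytotoxic solvent and applied either preemergence to planted seeds or postemergence to plants 2 to 18 cm tall. Response is rated visually versus controls after 13 to 15 days, 0 meaning no effect and 100 complete control.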

[2] = test system: barnyardgrass (Echinochloa crus-galli); assay: Test B preemergence
Procedure, shortened: as §1

[3] = test system: cocklebur (Xanthium strumarium); assay: Test B preemergence
Procedure, shortened: as §1

corn (Zea mays) = assay: Test B preemergence
Procedure, shortened: as §1

[4] = test system: crabgrass (Digitaria sanguinalis); assay: Test B preemergence
Procedure, shortened: as §1

[5] = test system: giant foxtail (Setaria faberii); assay: Test B preemergence
Procedure, shortened: as §1

[6] = test system: lambsquarters (Chenopodium album); assay: Test B preemergence
Procedure, shortened: as §1

[7] = test system: morning glory (Ipomoea hederacea); assay: Test B preemergence
Procedure, shortened: as §1

[8] = test system: pigweed (Amaranthus retroflexus); assay: Test B preemergence
Procedure, shortened: as §1

rice (Oryza saliva) = assay: Test B preemergence
Procedure, shortened: as §1

[9] = test system: velvetleaf (Abutilon theophrasti); assay: Test B preemergence
Procedure, shortened: as §1

Sunflower [10] = assay: Test C preemergence
[11] = test system: Surinam grass (Brachiaria decumbens); assay: Test C preemergence; details: for Plant response rating (0 to 100), Surinam grass: visual evaluation after 12 to 14 days
Procedure, shortened: (§2)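 Formulation: non-phytotoxic solvent mix incl. surfactant. Pre: applied right after planting. Post: 1–4-leaf seedlings. Read: visual 0–100, day 12–14, greenhouse.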

[12] = test system: bermudagrass (Cynodon dactylon); assay: Test C preemergence; details: for Plant response rating (0 to 100 where 0 is no effect and 100 is complete control), Bermudagrass: visual evaluation after 12 to 14 days
Procedure, shortened: as §2

[13] = test system: cocklebur (Xanthium strumarium); assay: Test C preemergence; details: for Plant response rating (0 to 100), Cocklebur: visual evaluation after 12 to 14 days
Procedure, shortened: as §2

[14] = test system: common ragweed (Ambrosia elatior); assay: Test C preemergence; details: for Plant response rating (0 to 100), Ragweed, Common: visual evaluation after 12 to 14 days
Procedure, shortened: as §2

[15] = test system: crabgrass (Digitaria sanguinalis); assay: Test C preemergence; details: for Plant response rating (0 to 100), Crabgrass: visual evaluation after 12 to 14 days
Procedure, shortened: as §2

[16] = test system: giant foxtail (Setaria faberii); assay: Test C preemergence; details: for Plant response rating (0 to 100), Foxtail, Giant: visual evaluation after 12 to 14 days
Procedure, shortened: as §2

[17] = test system: goosegrass (Eleusine indica); assay: Test C preemergence; details: for Plant response rating (0 to 100), Goosegrass: visual evaluation after 12 to 14 days
Procedure, shortened: as §2

[18] = test system: morningglory (Ipomoea hederacea); assay: Test C preemergence; details: for Plant response rating (0 to 100), Morningglory: visual evaluation after 12 to 14 days
Procedure, shortened: as §2

[19] = test system: velvetleaf (Abutilon theophrasti); assay: Test C preemergence; details: for Plant response rating (0 to 100), Velvetleaf: visual evaluation after 12 to 14 days
Procedure, shortened: as §2

Sunflower [20] = assay: Test C preemergence; details: visual evaluation after 12 to 14 days
[21] = Preemergence, Rate 500 g/ha, scale 0 to 100, 0 no effect, 100 complete control
[22] = preemergence, Rate 125 g/ha, scale 0 to 100, 0 no effect, 100 complete control
[23] = Rate 62 g/ha, scale 0 to 100, 0 no effect, 100 complete control
[24] = Preemergence, Rate 500 g/ha, scale 0 to 100
[25] = preemergence, Rate 125 g/ha, scale of 0 to 100 where 0 is no effect and 100 is complete control, 13 to 15 days
[26] = Rate 125 g/ha, scale 0 to 100, 0 no effect, 100 complete control
[27] = preemergence, Rate 62 g/ha, scale 0 to 100
[28] = preemergence, Rate 250 g/ha, scale 0 to 100, 0 no effect, 100 complete control

CC(C)(C)c1ccn(C2SCN(c3cccc(OC(F)(F)F)c3)C2=O)n1 (centres unmarked) [Compound 30]
60: Plant response rating, Surinam grass [1, 21] | Plant response rating, Surinam grass [11, 24] | Plant response rating, Foxtail, Giant [16, 22]
30: Plant response rating, Morningglory [18, 23] | Plant response rating, Morningglory [18, 22] | Plant response rating, Velvetleaf [19, 24]
90: Plant response rating, Cocklebur [3, 21] | Plant response rating, Morningglory [7, 21] | Plant response rating (0 to 100), Ragweed, Common ([14]; preemergence, Rate 250 g/ha) | Plant response rating, Ragweed, Common [14, 22] | Plant response rating (0 to 100), Foxtail, Giant ([16]; preemergence, Rate 250 g/ha)
40: Plant response rating, Surinam grass [1, 22] | Plant response rating, Barnyardgrass [2, 22] | Plant response rating, Velvetleaf [9, 21] | Plant response rating (0 to 100), Surinam grass ([11]; preemergence, Rate 250 g/ha) | Plant response rating, Surinam grass [11, 22]
0: Plant response rating, Cocklebur [3, 22] | Plant response rating, Corn (corn (Zea mays); [21]) | Plant response rating, Corn (corn (Zea mays); [22]) | Plant response rating, Rice (rice (Oryza saliva); [21]) | Plant response rating, Sunflower (Sunflower [10]; [23]) | Plant response rating, Cocklebur [13, 23] | Plant response rating (0 to 100), Cocklebur ([13]; preemergence, Rate 250 g/ha) | Plant response rating, Cocklebur [13, 22] | Plant response rating, Ragweed, Common [14, 23] | Plant response rating, Velvetleaf [19, 23] | Plant response rating (0 to 100), Velvetleaf ([19]; preemergence, Rate 250 g/ha) | Plant response rating, Velvetleaf [19, 22]
70: Plant response rating, Foxtail, Giant [5, 22]
80: Plant response rating, Cocklebur [13, 24] | Plant response rating, Foxtail, Giant [16, 23] | Plant response rating, Morningglory [18, 24] | Plant response rating (0 to 100), Morningglory ([18]; preemergence, Rate 250 g/ha) | Plant response rating (0 to 100), Sunflower (Sunflower [20]; Rate 250 g/ha)
20: Plant response rating, Crabgrass [4, 22] | Plant response rating, Surinam grass [11, 23]
100: Plant response rating, Barnyardgrass [2, 21] | Plant response rating, Crabgrass [4, 21] | Plant response rating, Foxtail, Giant [5, 21] | Plant response rating, Lambsquarters [6, 21] | Plant response rating, Lambsquarters [6, 22] | Plant response rating, Pigweed [8, 21] | Plant response rating, Sunflower (Sunflower [10]; Rate 500 g/ha, scale 0 to 100) | Plant response rating, Bermudagrass [12, 24] | Plant response rating, Bermudagrass [12, 23] | Plant response rating (0 to 100 where 0 is no effect and 100 is complete control), Bermudagrass ([12]; preemergence, Rate 250 g/ha) | Plant response rating, Bermudagrass [12, 22] | Plant response rating, Ragweed, Common [14, 24] | Plant response rating, Crabgrass [15, 24] | Plant response rating, Crabgrass [15, 23] | Plant response rating (0 to 100), Crabgrass ([15]; preemergence, Rate 250 g/ha) | Plant response rating, Crabgrass [15, 22] | Plant response rating, Foxtail, Giant [16, 24] | Plant response rating, Goosegrass [17, 24] | Plant response rating, Goosegrass [17, 23] | Plant response rating (0 to 100), Goosegrass ([17]; preemergence, Rate 250 g/ha) | Plant response rating, Goosegrass [17, 22]

CCCC(C)c1ccn(C2CCN(c3ccc(Cl)c(OC)c3)C2=O)n1 (centres unmarked) [Compound 121]
60: Plant response rating, Foxtail, Giant [16, 28]
40: Plant response rating, Surinam grass [1, 21] | Plant response rating, Barnyardgrass [2, 25]
80: Plant response rating, Surinam grass [11, 26]
50: Plant response rating, Corn (corn (Zea mays); [21]) | Plant response rating, Cocklebur [13, 28] | Plant response rating, Morningglory [18, 28]
30: Plant response rating, Cocklebur [3, 21] | Plant response rating, Morningglory [7, 21] | Plant response rating, Sunflower (Sunflower [10]; [26])
70: Plant response rating (0 to 100), Morningglory ([18]; preemergence, Rate 500 g/ha) | Plant response rating (0 to 100), Sunflower (Sunflower [20]; Rate 500 g/ha)
10: Plant response rating, Cocklebur [3, 25] | Plant response rating, Crabgrass [4, 25] | Plant response rating, Velvetleaf [9, 25] | Plant response rating, Morningglory [18, 26]
90: Plant response rating, Ragweed, Common [14, 26] | Plant response rating, Ragweed, Common [14, 28]
20: Plant response rating, Corn (corn (Zea mays); [25]) | Plant response rating, Morningglory [7, 25] | Plant response rating, Velvetleaf [9, 21] | Plant response rating, Surinam grass [11, 27] | Plant response rating, Cocklebur [13, 26] | Plant response rating, Foxtail, Giant [16, 27] | Plant response rating, Velvetleaf [19, 26]
100: Plant response rating, Barnyardgrass [2, 21] | Plant response rating, Crabgrass [4, 21] | Plant response rating, Foxtail, Giant [5, 21] | Plant response rating, Lambsquarters [6, 21] | Plant response rating, Lambsquarters [6, 25] | Plant response rating, Pigweed [8, 21] | Plant response rating, Pigweed [8, 25] | Plant response rating (0 to 100), Surinam grass ([11]; preemergence, Rate 500 g/ha) | Plant response rating, Surinam grass [11, 28] | Plant response rating, Bermudagrass [12, 26] | Plant response rating, Bermudagrass [12, 27] | Plant response rating (0 to 100 where 0 is no effect and 100 is complete control), Bermudagrass ([12]; preemergence, Rate 500 g/ha) | Plant response rating, Bermudagrass [12, 28] | Plant response rating (0 to 100), Cocklebur ([13]; preemergence, Rate 500 g/ha) | Plant response rating (0 to 100), Ragweed, Common ([14]; preemergence, Rate 500 g/ha) | Plant response rating, Crabgrass [15, 26] | Plant response rating, Crabgrass [15, 27] | Plant response rating (0 to 100), Crabgrass ([15]; preemergence, Rate 500 g/ha) | Plant response rating, Crabgrass [15, 28] | Plant response rating, Foxtail, Giant [16, 26] | Plant response rating (0 to 100), Foxtail, Giant ([16]; preemergence, Rate 500 g/ha) | Plant response rating, Goosegrass [17, 26] | Plant response rating, Goosegrass [17, 27] | Plant response rating (0 to 100), Goosegrass ([17]; preemergence, Rate 500 g/ha) | Plant response rating, Goosegrass [17, 28] | Plant response rating (0 to 100), Velvetleaf ([19]; preemergence, Rate 500 g/ha) | Plant response rating, Velvetleaf [19, 28]
0: Plant response rating, Surinam grass [1, 25] | Plant response rating, Foxtail, Giant [5, 25] | Plant response rating, Rice (rice (Oryza saliva); [21]) | Plant response rating, Rice (rice (Oryza saliva); [25]) | Plant response rating, Cocklebur [13, 27] | Plant response rating, Ragweed, Common [14, 27] | Plant response rating, Morningglory [18, 27] | Plant response rating, Velvetleaf [19, 27]

CCC(C)c1ccn(C2SCN(c3cccc(OC(F)(F)F)c3)C2=O)n1 (centres unmarked) [Compound 40]
60: Plant response rating, Surinam grass [1, 22] | Plant response rating, Corn (corn (Zea mays); [21]) | Plant response rating, Morningglory [7, 21] | Plant response rating, Cocklebur [13, 24]
20: Plant response rating, Cocklebur [13, 23] | Plant response rating, Cocklebur [13, 22]
100: Plant response rating, Barnyardgrass [2, 21] | Plant response rating, Barnyardgrass [2, 22] | Plant response rating, Crabgrass [4, 21] | Plant response rating, Crabgrass [4, 22] | Plant response rating, Foxtail, Giant [5, 21] | Plant response rating, Lambsquarters [6, 21] | Plant response rating, Lambsquarters [6, 22] | Plant response rating, Pigweed [8, 21] | Plant response rating, Rice (rice (Oryza saliva); [21]) | Plant response rating, Surinam grass [11, 24] | Plant response rating, Bermudagrass [12, 24] | Plant response rating (0 to 100 where 0 is no effect and 100 is complete control), Bermudagrass ([12]; preemergence, Rate 250 g/ha) | Plant response rating, Bermudagrass [12, 22] | Plant response rating, Crabgrass [15, 24] | Plant response rating, Crabgrass [15, 23] | Plant response rating (0 to 100), Crabgrass ([15]; preemergence, Rate 250 g/ha) | Plant response rating, Crabgrass [15, 22] | Plant response rating, Foxtail, Giant [16, 24] | Plant response rating (0 to 100), Foxtail, Giant ([16]; preemergence, Rate 250 g/ha) | Plant response rating, Goosegrass [17, 24] | Plant response rating (0 to 100), Goosegrass ([17]; preemergence, Rate 250 g/ha) | Plant response rating, Goosegrass [17, 22]
70: Plant response rating, Foxtail, Giant [5, 22] | Plant response rating, Ragweed, Common [14, 24]
0: Plant response rating, Cocklebur [3, 21] | Plant response rating, Cocklebur [3, 22] | Plant response rating, Corn (corn (Zea mays); [22]) | Plant response rating, Velvetleaf [9, 21] | Plant response rating, Sunflower (Sunflower [10]; [23]) | Plant response rating, Surinam grass [11, 23] | Plant response rating, Ragweed, Common [14, 23] | Plant response rating, Ragweed, Common [14, 22] | Plant response rating, Foxtail, Giant [16, 22] | Plant response rating, Morningglory [18, 24] | Plant response rating, Morningglory [18, 23] | Plant response rating (0 to 100), Morningglory ([18]; preemergence, Rate 250 g/ha) | Plant response rating, Morningglory [18, 22] | Plant response rating, Velvetleaf [19, 23] | Plant response rating, Velvetleaf [19, 22]
90: Plant response rating, Surinam grass [1, 21] | Plant response rating (0 to 100), Surinam grass ([11]; preemergence, Rate 250 g/ha) | Plant response rating, Foxtail, Giant [16, 23] | Plant response rating, Goosegrass [17, 23]
80: Plant response rating, Surinam grass [11, 22] | Plant response rating, Bermudagrass [12, 23]
50: Plant response rating, Velvetleaf [19, 24]
30: Plant response rating (0 to 100), Ragweed, Common ([14]; preemergence, Rate 250 g/ha) | Plant response rating (0 to 100), Velvetleaf ([19]; preemergence, Rate 250 g/ha) | Plant response rating (0 to 100), Sunflower (Sunflower [20]; Rate 250 g/ha)
40: Plant response rating, Sunflower (Sunflower [10]; Rate 500 g/ha, scale 0 to 100)
